Test system: CYP3A4
Test: CYP-induction assay in HepaRG cells, QuantiGene Plex 2.0 (CYP3A4 induction)
Assay type: in vitro ADME, human
Conditions: 48 hrs; for CYP3A4 (in parentheses: lowest concentration causing at least 2-fold induction): value in parentheses; for CYP3A4 (significant induction above 20% threshold): value outside parentheses
Source text: CYP-Induction Assay in HepaRG Cells with the QuantiGene Plex 2.0 Reagent System (Branched DNA-Assay) from Affymetrix (Thermo Scientific) (CYP3A4 Induction)
The QuantiGene Plex 2.0 assay combines branched DNA (bDNA) signal amplification and multi-analyte profiling beads (xMAP®) technologies to enable the detection and quantitation of multiple RNA targets simultaneously. The xMAP system combines a flow cytometer, fluorescent-dyed microspheres (beads), lasers and digital signal processing to allow multiplexing of up to 100 unique assays within a single sample.
Human HepaRG cells (Thermo Scientific) were thawed and seeded with a density of 0.72E6 cells/ml in a collagen precoated 96-well plate. After an adaption phase of 3 days in first Williams E medium (Gibco+thawing supplement, Thermo Scientific) the medium was changed to second Williams E medium (Gibco+tox supplement, Thermo Scientific). Daily treatment with test substances at 4 concentrations, started between day 3-10 of culturing, was performed with an incubation time of 48 hrs. After 48 hrs the cells were lysed with 100 μl/well (Lysis mixture, Affymetrix diluted 1:2 with Williams E medium, Gibco and addition of 5 μl proteinase K/ml of the mixture, Affymetrix). The QuantiGene Plex 2.0 assay utilizes fluorescent capture beads to trap specific RNA molecules. In order to hybridize and span contiguous sequences of the target RNA, the probe set containing 3 types of synthetic probes (Capture Extenders, Label Extenders, and Blockers) was incubated with samples and beads at 600 rpm at 54° C. for 16-20 h. Signal amplification was mediated by DNA amplification molecules that hybridize to the tails of the label extenders (incubation of the over-night hybridized beads with pre-amplifier and amplifier reagent for 1 h at 50° C. each, washing steps in between). Each amplification unit contains multiple hybridization sites for biotinylated label probes (incubation with label probe reagent for 1 h at 50° C., washing step in between) that bind Streptavidin-conjugated R-Phycoerythrin (SAPE, last incubation step for 30 min at room temp.). After the SAPE incubation, a last washing step with SAPE buffer was performed (120 μl left in wells). The resulting fluorescence signal associated with individual capture beads was detected on a Luminex 200 flow cytometer (parameters: volume 100 μl, timeout 45 sec., DD-gate 5,000-25,000, bead events 50). Signals were reported as median fluorescence intensity (MFI) and were proportional to the number of target RNA molecules present in the sample.
For analysis of results, calculation of mean values of 3 technical replicates as well as the standard deviations (% SD up to 30% acceptable) were carried out. The mean value of the blank was subtracted from the mean value of the sample. As the genes HPRT1 and TFRC are housekeeping genes, they are used to normalize sample mean values [(Sample Mean−Blank)/Housekeeper (Mean−Blank)=normalized value (HPRT1 or TFRC)]. Calculation of the fold-change was performed by dividing normalized sample values by the normalized mean values of the DMSO controls [(Sample Mean−Blank)/Housekeeper (Mean−Blank)=fc; (DMSO Mean−Blank)/Housekeeper (Mean−Blank)].
Experimental data of the compounds shown in Table 1 in the CYP3A4 assay are shown in Table 2 below and given in μM (significant induction above 20% threshold; in parentheses: lowest concentration causing at least 2-fold induction): […]

| SMILES | CYP3A4 (in parentheses: lowest concentration causing at least 2-fold induction) [µM] | CYP3A4 (significant induction above 20% threshold) [µM] |
| --- | --- | --- |
| CCn1c(C(O)(c2ccccc2F)c2ccccc2F)nc2nc(C)c(-c3nnn[nH]3)cc21 [Compound 59, [1-ethyl-5-methyl-6-(1H-1,2,3,4-tetrazol-5-yl)-1H-imidazo[4,5-b]pyridin-2-yl]bis(2-fluorophenyl)methanol] | 5 | 13.4 |
| CCn1c(C(O)(c2ccccc2)c2ccccc2)nc2nc(Cl)c(-c3nnn[nH]3)cc21 [Compound 51, [5-chloro-1-ethyl-6-(1H-1,2,3,4-tetrazol-5-yl)-1H-imidazo[4,5-b]pyridin-2-yl]diphenylmethanol] | 50 | 3.1 |
| CCc1c(C(O)(c2ccccc2)c2ccccc2)nc2cc(OC)c(-c3nnn[nH]3)cn12 [Compound 2, [3-Ethyl-7-methoxy-6-(1H-tetrazol-5-yl)-imidazo[1,2-a]pyridin-2-yl]-diphenyl-methanol] | 5 | 2.3 |
| CCc1c(C(O)(c2ccccc2)c2ccccc2)nn2cc(Cl)c(-c3nnn[nH]3)cc12 [Compound 21, [6-Chloro-3-ethyl-5-(1H-tetrazol-5-yl)-pyrazolo[1,5-a]pyridin-2-yl]-diphenyl-methanol] | 50 | 2.6 |
| CCc1c(C(O)(c2ccccc2)c2ccccc2)nc2ccc(-c3nnn[nH]3)cn12 [Compound 4, [3-Ethyl-6-(1 H-tetrazol-5-yl)-imidazo[1,2-a]pyridin-2-yl]-diphenyl-methanol] | 50 | 2.2 |
| CCn1c(C(O)(c2ccccc2)c2ccccn2)nc2nc(OC)c(-c3nnn[nH]3)cc21 (single isomer, unassigned) [Compound 40, [1-ethyl-5-methoxy-6-(1H-1,2,3,4-tetrazol-5-yl)-1H-imidazo[4,5-b]pyridin-2-yl](phenyl)(pyridin-2-yl)methanol] | 5 | 6.8 |
| CCn1c(C(O)(c2ccccc2)c2ccccc2)nc2ccc(C(=O)NC[C@@H](C)O)cc21 [Reference Compound, 3-Ethyl-2-[hydroxy(diphenyl)methyl]-N-[(2R)-2-hydroxypropyl]benzimidazole-5-carboxamide, reference compound] | 0.15 | 4.1 |
| CCn1c(C(O)(c2ccccc2)c2ccccc2)nc2nc(OC)c(-c3nnn[nH]3)cc21 [Compound 58, [1-ethyl-5-methoxy-6-(1H-1,2,3,4-tetrazol-5-yl)-1H-imidazo[4,5-b]pyridin-2-yl]diphenylmethanol] | 50 | 3.8 |

From patent US20240009175A9, “TETRAZOLE DERIVATIVES” (Merck Patent GmbH, priority 2020, published 2024)
